PubChem BioAssay (NCI)
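96-well plates; 48 h exposure; 5 concentrations. Endpoints by linear interpolation between flanking doses. Not reached: highest tested concentration assigned. Abbreviation: GI50, concentration required for 50% inhibition of growth. TGI marks complete inhibition of growth.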

Key:
Test in all cases: DTP human tumour cell line panel, 48 h
SF-295 CNS = test system: SF-295 CNS
OVCAR-5 ovarian = test system: OVCAR-5 ovarian
SK-MEL-28 melanoma = test system: SK-MEL-28 melanoma
LOX IMVI melanoma = test system: LOX IMVI melanoma
SK-MEL-5 melanoma = test system: SK-MEL-5 melanoma
HOP-62 NSCLC = test system: HOP-62 NSCLC
NCI-H460 lung = test system: NCI-H460 lung
OVCAR-4 ovarian = test system: OVCAR-4 ovarian
SF-268 CNS = test system: SF-268 CNS
HOP-92 NSCLC = test system: HOP-92 NSCLC

Compound | GI50 (SF-295 CNS) [µM] | TGI (SF-295 CNS) [µM] | GI50 (OVCAR-5 ovarian) [µM] | TGI (OVCAR-5 ovarian) [µM] | GI50 (SK-MEL-28 melanoma) [µM] | TGI (SK-MEL-28 melanoma) [µM] | GI50 (LOX IMVI melanoma) [µM] | TGI (LOX IMVI melanoma) [µM] | GI50 (SK-MEL-5 melanoma) [µM] | TGI (SK-MEL-5 melanoma) [µM] | GI50 (HOP-62 NSCLC) [µM] | TGI (HOP-62 NSCLC) [µM] | GI50 (NCI-H460 lung) [µM] | TGI (NCI-H460 lung) [µM] | GI50 (OVCAR-4 ovarian) [µM] | TGI (OVCAR-4 ovarian) [µM] | GI50 (SF-268 CNS) [µM] | TGI (SF-268 CNS) [µM] | GI50 (HOP-92 NSCLC) [µM] | TGI (HOP-92 NSCLC) [µM]
CC1(C)N=C(N)N=C(N)N1c1ccc(CCCC(=O)Nc2ccc(S(=O)(=O)F)cc2)cc1 | 38.6 | > 100 | 12 | > 100 | 16 | > 100 | 6.03 | > 100 | 3.2 | 28.1 | 40.9 | > 100 | 0.816 | > 100 | > 62.3 | > 100 | 6.59 | > 100 | 10.7 | > 100
CC[C@H](C)[C@H](NC(=O)C12C3C4C1C1C2C3C41NC)C(=O)N(C)[C@H](C[C@@H](OC(C)=O)c1nc(C(=O)N[C@@H](Cc2ccccc2)C[C@H](C)C(=O)OC)cs1)C(C)C (stereo not given in full) | 0.526 | > 9.29 | > 7.57 | > 14.3 | 0.714 | > 14.3 | 0.493 | > 14.3 | 0.159 | 2.85 | 1.18 | > 11.7 | 0.617 | > 14.3 | 1.75 | > 14.3 | 1.3 | > 14.3 | > 6.28 | > 14.3
COc1cccc(C2CC(=O)Nc3c2c(C)nn3-c2nc3ccccc3[nH]2)c1OC (stereo not given) | 1.37 | 3.78 | 11.8 | > 100 | 9.71 | > 87 | 3.65 | 12.9 | 2.2 | 5.74 | 2.73 | 7.78 | 3.09 | 10.2 | 6.92 | > 91.3 | 4.92 | 61.3 | 2.95 | 24.3
Cc1cc(Cl)ccc1N=C1NC(=O)C(CC(=O)Nc2cccc(Cl)c2)S1 (stereo not given) | – | > 100 | – | 87.4 | – | > 100 | – | > 100 | – | > 100 | – | > 100 | – | > 100 | – | > 100 | – | > 100 | – | 69.8
Clc1ccc2c(NCCNc3nc(N4CCOCC4)nc4ccccc34)ccnc2c1 | 1.75 | 3.24 | 3.34 | 12.6 | 2.1 | 4.12 | 1.8 | 3.45 | 1.75 | 3.15 | 2.25 | 5.98 | 2.03 | 4.16 | 2.46 | 6.17 | 3.53 | 13 | 1.43 | 3.2
Cc1ccc(-c2nc(NCCOCCOCCN)nc(N3CCN(c4ccccn4)CC3)n2)cc1 | 18.4 | 38.6 | 16.9 | 32.9 | 6.04 | 12.4 | 8.82 | 25.9 | 11.8 | 25.1 | 16.7 | 31.4 | 13.9 | 29.9 | 14.7 | 29.3 | 14.3 | 29.9 | 4.15 | 19
COc1cccc(/C=C2\N=C(c3ccccc3)OC2=O)c1 | – | > 100 | – | > 100 | – | > 100 | – | 66.8 | – | > 100 | – | > 100 | – | > 100 | – | > 100 | – | > 100 | – | > 100
C=C1C(=O)OC2CC(C)C(/C=C/C(C)=O)=CCC12 (stereo not given) | – | > 100 | – | > 100 | – | > 100 | – | > 100 | – | > 100 | – | > 100 | – | > 100 | – | > 100 | – | > 100 | – | > 100
O=c1ccc(N=Nc2ccccc2)ccc1O | – | 20.9 | – | 47.4 | – | 32.9 | – | 17.4 | – | 23.6 | – | 24.4 | – | 97.8 | – | 69.1 | – | > 100 | – | 41.1
CC(=O)c1cc2c(N)c(C(=O)Nc3cccc4ccccc34)sc2nc1C | 0.922 | 3.59 | 2.6 | > 50 | 4.07 | > 50 | 2.58 | > 50 | 1.09 | > 50 | 1.67 | 27.4 | 1.61 | > 50 | 6.06 | > 50 | 4.34 | > 50 | 6.78 | > 50
N[C@@H]1CCCN(c2c(Br)cnc3[nH]cc(NC(=O)C4CC4)c23)C1 | 0.328 | > 100 | 0.478 | > 100 | 77.2 | > 100 | 0.435 | 13.4 | 0.469 | 2.24 | 0.646 | > 100 | 0.785 | > 100 | 0.341 | > 100 | 3.92 | > 100 | 1.02 | > 55.8
COc1cc2ncn(-c3cc(OCc4ccccc4C(F)(F)F)c(C(N)=O)s3)c2cc1OC | 0.131 | 6.9 | 0.178 | > 25 | 1.5 | > 25 | 0.139 | > 25 | 0.106 | > 25 | 0.197 | 5.88 | 0.101 | > 25 | > 23.5 | > 25 | 0.225 | > 25 | 2.2 | 10.5
Cn1c(=O)c(-c2ccccc2Cl)cc2cnc(NC3CCOCC3)nc21 | 12.1 | > 25 | 18.5 | > 25 | 10.7 | > 25 | 5.49 | > 25 | 11 | > 25 | > 25 | > 25 | 11.1 | > 25 | 10.4 | > 25 | 14.6 | > 25 | 4.27 | 21.6
Nc1ncn([C@H]2CC(O)[C@@H](CO)S2)c(=O)n1 (stereo not given in full) | 35.5 | > 100 | 23.3 | > 100 | 2.05 | > 100 | 4.48 | > 100 | 1.17 | > 100 | 4.63 | > 100 | 0.685 | > 100 | > 100 | > 100 | 16.4 | > 100 | > 100 | > 100
N#C/C(=C\c1ccc(O)cc1)C(N)=O | – | > 100 | – | > 100 | – | > 100 | – | > 100 | – | > 100 | – | > 100 | – | > 100 | – | > 100 | – | > 100 | – | > 100
